In publication PMC10388363, “Novel 1,4-Dihydropyridines as Specific Binders and Activators of SIRT3 Impair Cell Viability and Clonogenicity and Downregulate Hypoxia-Induced Targets in Cancer Cells” (Journal of Medicinal Chemistry, 2023):
Like-named read-outs stand apart in the source and are kept apart here.

Assays:
human SIRT3 = molecular target: T1, human SIRT3 (Homo sapiens, UniProt Q9NTG7); test: Surface plasmon resonance binding assay, immobilized SIRT3; details: SPR, Scatchard analysis, analytes 5-80 μM
T1 construct: pET151D/Topo (Sirt3-114-380 and Sirt5-34-302); His tag (N, cleaved yes); made in house; host or cells: Escherichia coli
T1 sequence (Q9NTG7 114-380): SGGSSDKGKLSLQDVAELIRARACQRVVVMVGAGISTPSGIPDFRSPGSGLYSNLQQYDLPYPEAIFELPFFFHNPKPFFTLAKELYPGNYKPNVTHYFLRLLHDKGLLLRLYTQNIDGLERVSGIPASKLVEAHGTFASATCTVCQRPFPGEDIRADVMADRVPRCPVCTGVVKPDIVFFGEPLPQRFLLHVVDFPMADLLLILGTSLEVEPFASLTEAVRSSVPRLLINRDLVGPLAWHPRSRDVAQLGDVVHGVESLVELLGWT
Description: Next, surface plasmon resonance (SPR) experiments were conducted with selected SIRT3 activators 2e and 3a–d to ascertain their biophysical interaction with the human SIRT3 protein. Their parental compounds 2 and 3, together with honokiol, were used as positive controls. The experiments were carried out twice at different concentrations (5, 10, 20, 40, and 80 μM), by injecting the compounds at increasing doses (Figure 5). The resonance units (RU) increase with respect to baseline indicates the formation of the SIRT3/ligand complex, the plateau region represents the steady-state phase of the interaction (RUeq, RU at equilibrium) and the decrease in RU after 180 s represents dissociation of analytes from the immobilized SIRT3 protein after injection of the buffer.
SPR experiments were carried out using a SensiQ Pioneer system (SensiQ, Oklahoma City, OK, USA), essentially as in Genovese et al. 2020[84] and in Battista et al. 2021,[85] with some modifications, as follows.
The sensor chip (COOH5) was chemically activated by a 35 μL injection of a 1:1 mixture of […] (200 mM) and N-hydroxysuccinimide (50 mM) at a flow rate of 5 μL/min. Sirtuin3 (ligand) was immobilized on activated sensor chips via amine coupling. Immobilization was carried out in 20 mM sodium acetate at pH 4.0; unreacted groups were blocked by injecting 1 M ethanolamine hydrochloride (35 μL). Sirtuin3 immobilization level obtained was 1500–4000 RU.
The analytes, dissolved in 100% DMSO at 10 mM concentration, were diluted in buffer 20 mM Hepes, 150 mM NaCl, 0.005% surfactant P20 buffer (HBSP) to a concentration of 200 μM (2% final DMSO concentration), further diluted in HBSP + 2% DMSO (HBSP2%D) and injected on the sensor chip at a constant flow rate (nominal flow rate = 30 μL/min) at the following concentrations: 5, 10, 20, 40, and 80 μM.
The RU increase relative to baseline indicates complex formation (taking place at known analytes concentrations at each moment in the gradient); the plateau region represents the steady-state phase of the interaction (RUeq); and the decrease in RU after 180 s represents dissociation of analytes from the immobilized Sirtiun3 after injection of HBSP2%D. Regeneration procedures are based on two long (2000 and 500 s) injections of buffer, separated by a brief (5 s) injection of 10 mM NaOH.
Control experiments were performed in sensor chips treated as described above in the absence of an immobilized ligand. Kinetic evaluation of the sensorgrams was obtained using the SensiQ Qdat program and full fitting with 1, 2, and 3 sites; Scatchard analysis was used to determine apparent KD values.

CAL-62 cells = test: Clonogenic assay, CAL-62; assay type: cell-based; details: Homo sapiens; CAL-62, 48 h, normoxia; read-out: IC50 against colonies formation
Description: Afterward, the selected compounds 3a–d were assayed at 50 μM for 24 and 48 h in CAL-62 and MDA-MB-231 cells to assess their ability to impair the cell viability and colony formation in either normoxia or hypoxia-induced condition, the latter obtained by adding a 200 μM cobalt chloride solution, as described in previous reports[69] (Figure 8). Most cancer cells, mainly solid types, are known to have an altered metabolism due to hypoxia, a non-physiological level of oxygen tension, which contributes to therapy resistance by causing cellular quiescence.[70] Moreover, hypoxic cancer cells can induce several factors that lead to cell proliferation and colony formation.[71]
Cells were seeded in a 100 mm dish and, once at 80–90% confluence, treated as described in the Results and Discussion section. After 24 and 48 h, cells were collected, counted, and 500 cells plated in a 100 mm dish. After about 7 days for CAL62 and 10 days for MDA-MB-231, plates were washed with phosphate-buffered saline solution (PBS); (Merck; 79382), and clones were fixed with 4% formaldehyde solution in PBS (Merck; F8775) at room temperature for 15 min. After that, the dishes were washed with PBS, and clones stained for 5 min with 0.5% crystal violet (Merck; C0775). Finally, the plates were washed with distilled water and air-dried. After scanning each individual dish, the colonies were counted the following day.

MDA-MB-231 cells = test: Cell viability / cell death, trypan blue exclusion, MDA-MB-231; assay type: cell-based, human
[1] = Cell viability / cell death in healthy HaCaT cells; assay type: cell-based, human; details: human, HaCaT cells (healthy keratinocytes), HaCaT
Description: Breast cancer cell line MDA-MB-231, anaplastic thyroid cancer cell line CAL-62 and human keratinocytes HaCaT were purchased from ATCC and were cultured in RPMI 1640 medium (R0883 Sigma Aldrich-MERCK) (MDA-MB-231 and CAL-62) or DMEM medium (11965092, Gibco) supplemented with 10% fetal bovine serum (Sigma-Aldrich-MERCK, F9665), 2 mM glutamine (G7513; Sigma-Aldrich-MERCK), 100 units/mL penicillin and 0.1 mg/mL streptomycin (P0781; Sigma-Aldrich-MERCK). Adherent cells were detached by Trypsin–EDTA solution (TA049; Sigma-Aldrich-MERCK). Cells were maintained at 37 °C in humidified incubator with 5% CO2. Cells were treated with […] (CoCl2) (Merck; C8661) dissolved in distilled, sterile water for 24 h to induce hypoxia (200 μM). […] SIRT3 inhibitor 3-TYP was dissolved in DMSO and added to a final concentration of 1 μM for 24 and/or 48 h.
Cell viability was assessed by the trypan blue exclusion assay. At the end of treatments, cells were harvested and stained with 0,4% trypan blue (Merck; T8154). The cell suspension was applied to a hemocytometer and counted with phase contrast microscopy (NIKON EclipseTE2000U, Nikon Netherlands, Amsterdam, The Netherlands).

Row | Structure (SMILES) | Kd (human SIRT3) | IC50 (CAL-62 cells) | viability at 5 µM (MDA-MB-231 cells; Homo sapiens, MDA-MB-231, 5 μM, 24 h, read-out: Cell viability (%) T24) | viability at 5 µM (MDA-MB-231 cells; Homo sapiens, MDA-MB-231, 5 μM, 48 h, read-out: Cell viability (%) T48) | viability at 10 µM (MDA-MB-231 cells; Homo sapiens, MDA-MB-231, 10 μM, 24 h, read-out: Cell viability (%) T24) | viability at 25 µM (MDA-MB-231 cells; Homo sapiens, MDA-MB-231, 25 μM, 24 h, read-out: Cell viability (%) T24) | viability at 25 µM (MDA-MB-231 cells; Homo sapiens, MDA-MB-231, 25 μM, 48 h, read-out: Cell viability (%) T48) | Cell death (%) T24 (MDA-MB-231 cells; MDA-MB-231, 5 μM, 24 h) | Cell death (%) T48 (MDA-MB-231 cells; MDA-MB-231, 5 μM, 48 h) | Cell death (%) T24 (MDA-MB-231 cells; MDA-MB-231, 10 μM, 24 h) | Cell death (%) T24 (MDA-MB-231 cells; MDA-MB-231, 25 μM, 24 h) | Cell death (%) T48 (MDA-MB-231 cells; MDA-MB-231, 25 μM, 48 h) | viability at 24 h, 5 µM ([1]; 5 μM, 24 h, read-out: Cell viability (%) T24) | viability at 48 h, 5 µM ([1]; 5 μM, 48 h, read-out: Cell viability (%) T48) | viability at 24 h, 10 µM ([1]; 10 μM, 24 h, read-out: Cell viability (%) T24) | viability at 48 h, 10 µM ([1]; 10 μM, 48 h, read-out: Cell viability (%) T48) | viability at 24 h, 25 µM ([1]; 25 μM, 24 h, read-out: Cell viability (%) T24) | viability at 48 h, 25 µM ([1]; 25 μM, 48 h, read-out: Cell viability (%) T48)
1 | CCOC(=O)C1=CN(C(=O)c2ccc(OC)c(OC)c2)C=C(C(=O)OCC)C1c1ccccc1 [Compound 3c, Diethyl 1-(3,4-dimethoxybenzoyl)-4-phenyl-1,4-dihydropyridine-3,5-dicarboxylate] | 29 µM |  |  |  |  |  |  |  |  |  |  |  |  |  |  |  |  | 
2 | CCOC(=O)C1=CN(C(=O)c2cc(OC)cc(OC)c2)C=C(C(=O)OCC)C1c1ccccc1 [Compound 3d, Diethyl 1-(3,5-dimethoxybenzoyl)-4-phenyl-1,4-dihydropyridine-3,5-dicarboxylate] |  | ~2.5 µM | 74.1% | 51.7% | 56.2% | 42.8% | 21.1% | 25,9% | 48,3% | 43,8% | 57,2% | 78,8% | 96.1% | 83.9% | 91.6% | 66.1% | 84.7% | 52.7%
